Source: publication PMC3050527 (Bioorganic & medicinal chemistry, 2010)
Entries after “also recorded” stand apart in the source; their conditions may differ.

Assays:
Assay type in all cases: biochemical
hGX sPLA2 = biological target: T1, hGX sPLA2 (Homo sapiens, UniProt O15496); experiment: continuous fluorimetric sPLA2 assay, human GX
T1 sequence (O15496 43-165): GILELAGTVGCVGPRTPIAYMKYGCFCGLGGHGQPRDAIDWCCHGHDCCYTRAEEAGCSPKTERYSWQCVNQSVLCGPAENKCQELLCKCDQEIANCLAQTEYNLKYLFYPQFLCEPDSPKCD

cPLA2 = biological target: T2, cPLA2 (Homo sapiens, UniProt P47712); experiment: inhibition of cPLA2; details: at 1µµ
T2 sequence (P47712 1-749): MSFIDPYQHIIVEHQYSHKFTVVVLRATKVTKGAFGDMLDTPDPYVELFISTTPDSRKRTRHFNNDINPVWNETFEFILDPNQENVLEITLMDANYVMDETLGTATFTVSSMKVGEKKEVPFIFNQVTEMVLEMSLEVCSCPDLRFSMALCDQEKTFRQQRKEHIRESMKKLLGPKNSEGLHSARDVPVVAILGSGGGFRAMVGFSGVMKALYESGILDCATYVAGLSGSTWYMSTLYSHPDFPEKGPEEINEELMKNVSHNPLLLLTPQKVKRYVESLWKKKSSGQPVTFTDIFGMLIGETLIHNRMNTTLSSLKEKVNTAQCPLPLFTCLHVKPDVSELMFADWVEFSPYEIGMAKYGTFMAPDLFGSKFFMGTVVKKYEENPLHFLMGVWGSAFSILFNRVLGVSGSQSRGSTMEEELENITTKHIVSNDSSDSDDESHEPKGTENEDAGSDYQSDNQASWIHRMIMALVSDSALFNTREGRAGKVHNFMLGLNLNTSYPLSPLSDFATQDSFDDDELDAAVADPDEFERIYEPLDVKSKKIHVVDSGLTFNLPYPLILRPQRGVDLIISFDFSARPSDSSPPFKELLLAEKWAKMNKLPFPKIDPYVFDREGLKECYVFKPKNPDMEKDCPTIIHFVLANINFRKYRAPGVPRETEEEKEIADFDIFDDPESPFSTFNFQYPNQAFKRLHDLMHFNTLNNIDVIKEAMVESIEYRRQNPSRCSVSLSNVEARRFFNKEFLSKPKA

hGIIA sPLA2 = biological target: T3, hGIIA sPLA2 (Homo sapiens, UniProt P14555); experiment: continuous fluorimetric sPLA2 assay, human GIIA; details: compared with GK126
T3 sequence (P14555 21-144): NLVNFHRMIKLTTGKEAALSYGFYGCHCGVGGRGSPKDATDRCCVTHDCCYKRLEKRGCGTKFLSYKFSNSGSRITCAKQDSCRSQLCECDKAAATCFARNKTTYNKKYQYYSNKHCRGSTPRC

Row | Structure (SMILES) | inhibition of human GX sPLA2 (in words) (hGX sPLA2) | inhibition against cPLA2 (cPLA2) [%] | sPLA2 inhibitory activity (in words) (hGIIA sPLA2)
1 | CCCCCCCCCCCCCCC(=O)C(=O)N[C@@H](CC(C)C)C(=O)O [GK126, (S)-4-Methyl-2-(2-oxohexadecanamido)pentanoic acid] | did not show any inhibition; also recorded: did not display any measurable inhibition | ≤ 12 | –
2 | CCCCCCCCCCCCCCC(=O)C(=O)N[C@@H](Cc1ccccc1)C(=O)O [GK141, (S)-2-(2-Oxohexadecanamido)-3-phenylpropanoic acid] | – | – | inactive
3 | CCCCCCCCCCCCCCCC(=O)N[C@@H](CC(C)C)C(=O)O [GK144, (S)-4-Methyl-2-palmitamidopentanoic acid] | – | – | inactive
